Here are results for 24 compounds from patent US20240391948A1, “NOVEL COMPOUND THAT INHIBITS TNF-ALPHA GENERATION AND INFLAMMASOME ACTIVITY AND PREPARATION METHOD THEREFOR” (SHAPERON INC., priority 2021, published 2024).

What all share (format): cell-based
In assay [1] the test system is U937 cells (human monocytic cell line). The assay can be described thus: BzATP-induced IL-1β secretion inhibition in PMA-differentiated U937 cells. The settings on record: U-937, U937 cells differentiated with PMA, read-out: IL-1β production inhibition grade (IC50). Summed up: (§1)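 U937 cells were PMA-differentiated into macrophages and treated with compound before inflammatory stimulus. TNF-α secretion was induced with Pam2CSK4 and IL-1β secretion with BzATP. IC50 (μM) values are graded A-D, with separate cut-offs per cytokine.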

Assay [2] shares this test system. The assay can be described thus: Pam2CSK4-induced TNF-α secretion inhibition in PMA-differentiated U937 cells. The settings on record: U-937, U937 cells differentiated with PMA, read-out: TNF-α production inhibition grade (IC50). In a few lines:
as §1

Assay [3] relates to J774A.1 (Mouse BALB/c monocyte macrophage cell line) cells. The assay can be described thus: LPS+ATP-induced IL-1β secretion inhibition in J774A.1 cells. The settings on record: J774.A1, 1 μM compound, graded compared to taurodeoxycholic acid (positive control), read-out: IL-1β production inhibition grade. In a few lines:
(§2)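 Mouse J774A.1 macrophages treated with 1 μM compound; TNF-α secretion measured after LPS stimulation and IL-1β secretion after LPS+ATP stimulation. Suppression graded against taurodeoxycholic acid: A over 100%, B 50–100%, C 20–50%, D under 20%.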

The test system is the same in assay [4]. The assay can be described thus: LPS-induced TNF-α secretion inhibition in J774A.1 cells. The conditions noted are these: J774.A1, 1 μM compound, graded compared to taurodeoxycholic acid (positive control), read-out: TNF-α production inhibition grade. Summed up:
as §2

One may read the IC50 as the point on the concentration scale where inhibition reaches its midpoint. In general, inhibition refers to the drop in the measured response relative to a control, in per cent.

`CC(C)C[C@@H](CS(=O)(=O)O)NC(=O)CC[C@@H](C)[C@H]1CC[C@H]2[C@@H]3CC[C@@H]4C[C@H](O)CC[C@]4(C)[C@H]3C[C@H](O)[C@]12C` [NC10045]: the IC50 is 50 to 100 nM in assay [1] and below 500 nM in assay [2]. Also, the inhibition at 1 µM in assay [3] was 50 to 100%; in assay [4], below 20%.
For the compound `CC(C)C[C@H](CS(=O)(=O)O)NC(=O)CC[C@@H](C)[C@H]1CC[C@H]2[C@@H]3[C@H](O)C[C@@H]4C[C@H](O)CC[C@]4(C)[C@H]3C[C@H](O)[C@]12C` [NC20031], the results for the concentration for half-maximal inhibition (IC50) in assay [1] and in assay [2] were 50 to 100 nM and below 500 nM, respectively. Also, the figures for the inhibition at 1 µM in assay [3] and in assay [4] were 50 to 100% and below 20%, respectively.
The corresponding values for `C[C@H](CCC(=O)NCCOS(=O)(=O)O)[C@H]1CC[C@H]2[C@@H]3CC[C@@H]4C[C@H](O)CC[C@]4(C)[C@H]3C[C@H](O)[C@]12C` [NC10007] are below 50 nM, at least 2000 nM, 50 to 100% and 50 to 100%.
The corresponding values for `CC[C@H]1[C@@H](O)[C@@H]2[C@H](C[C@H](O)[C@]3(C)[C@@H]([C@H](C)CCC(=O)N[C@@H](C)CS(=O)(=O)O)CC[C@@H]23)[C@@]2(C)CC[C@@H](O)C[C@@H]12` [NC50028] are at least 200 nM, 1000 to 2000 nM, 50 to 100% and below 20%.
For `C[C@H](CCC(=O)NC(C)(C)CS(=O)(=O)O)[C@H]1CC[C@H]2[C@@H]3[C@H](O)C[C@@H]4C[C@H](O)CC[C@]4(C)[C@H]3C[C@H](O)[C@]12C` [NC20013], the figures for the IC50 in assay [1] and in assay [2] were below 50 nM and 1000 to 2000 nM, respectively. In addition, the inhibition at 1 µM in assay [3] was above 100%; in assay [4], below 20%.
Consider `C[C@H](CCC(=O)N[C@H](Cc1ccccc1)CS(=O)(=O)O)[C@H]1CC[C@H]2[C@@H]3CC[C@@H]4C[C@H](O)CC[C@]4(C)[C@H]3CC[C@]12C` [NC10071], for which the half-maximal inhibitory concentration (IC50) in assay [1] is below 50 nM; in assay [2], below 500 nM. Also, the results for the inhibition at 1 µM in assay [3] and in assay [4] were above 100% and below 20%, respectively.
On the same counts, the results for `CC[C@H]1[C@@H](O)[C@@H]2[C@H](CC[C@]3(C)[C@@H]([C@H](C)CCC(=O)N(CCS(=O)(=O)O)Cc4cccnc4)CC[C@@H]23)[C@@]2(C)CC[C@@H](O)C[C@@H]12` [NC40036] are 50 to 100 nM, 1000 to 2000 nM, 50 to 100% and below 20%.
`CC[C@H]1[C@@H](O)[C@@H]2[C@H](CC[C@]3(C)[C@@H]([C@H](C)CCC(=O)N4CC(S(=O)(=O)O)C4)CC[C@@H]23)[C@@]2(C)CC[C@@H](O)C[C@@H]12` [NC40012]: the figures for the concentration for half-maximal inhibition (IC50) in assay [1] and in assay [2] were at least 200 nM and 500 to 1000 nM, respectively. Further, the values for the inhibition at 1 µM in assay [3] and in assay [4] were 50 to 100% and below 20%, respectively.
The corresponding values for `C[C@H](CCC(=O)N[C@H](Cc1ccccc1)CS(=O)(=O)O)[C@H]1CC[C@H]2[C@@H]3CC[C@@H]4C[C@H](O)CC[C@]4(C)[C@H]3C[C@H](O)[C@]12C` [NC10031] are 50 to 100 nM, at least 2000 nM, below 20% and below 20%.
As to `C[C@H](CCC(=O)N[C@H]1CCCC[C@H]1S(=O)(=O)O)[C@H]1CC[C@H]2[C@@H]3[C@H](O)C[C@@H]4C[C@H](O)CC[C@]4(C)[C@H]3C[C@H](O)[C@]12C` [NC20027], the values for the IC50 in assay [1] and in assay [2] were below 50 nM and at least 2000 nM, respectively. In addition, the results for the inhibition at 1 µM in assay [3] and in assay [4] were above 100% and below 20%, respectively.
`C[C@H](CCC(=O)N[C@@H](C)CS(=O)(=O)O)[C@H]1CC[C@H]2[C@@H]3CC[C@@H]4C[C@H](O)CC[C@]4(C)[C@H]3CC[C@]12C` [NC10084]: the results for the half-inhibitory concentration (IC50) in assay [1] and in assay [2] were at least 200 nM and below 500 nM, respectively. Also, the inhibition at 1 µM in assay [3] and in assay [4] was below 20% throughout.
As for `CC[C@H]1[C@@H](O)[C@@H]2[C@H](C[C@H](O)[C@]3(C)[C@@H]([C@H](C)CCC(=O)N(CCS(=O)(=O)O)C4CCOCC4)CC[C@@H]23)[C@@]2(C)CC[C@@H](O)C[C@@H]12` [NC50008], the half-inhibitory concentration (IC50) in assay [1] was below 50 nM; in assay [2], 500 to 1000 nM. Also, the inhibition at 1 µM in assay [3] is above 100%; in assay [4] it was below 20%.
The corresponding values for `CC[C@H]1[C@@H](O)[C@@H]2[C@H](CC[C@]3(C)[C@@H]([C@H](C)CCC(=O)N[C@@H](CS(=O)(=O)O)c4ccccc4)CC[C@@H]23)[C@@]2(C)CC[C@@H](O)C[C@@H]12` [NC40019] are 100 to 200 nM, 1000 to 2000 nM, above 100% and below 20%.
The corresponding values for `CC[C@H]1[C@@H](O)[C@@H]2[C@H](C[C@H](O)[C@]3(C)[C@@H]([C@H](C)CCC(=O)N(CCO)CCS(=O)(=O)O)CC[C@@H]23)[C@@]2(C)CC[C@@H](O)C[C@@H]12` [NC50006] are below 50 nM, at least 2000 nM, below 20% and below 20%.
The corresponding values for `CC[C@H]1[C@@H](O)[C@@H]2[C@H](C[C@H](O)[C@]3(C)[C@@H]([C@H](C)CCC(=O)N4CCC[C@H]4CS(=O)(=O)O)CC[C@@H]23)[C@@]2(C)CC[C@@H](O)C[C@@H]12` [NC50021] are at least 200 nM, 500 to 1000 nM, 20 to 50% and below 20%.
Turning to `CC[C@H]1[C@@H](O)[C@@H]2[C@H](CC[C@]3(C)[C@@H]([C@H](C)CCC(=O)N[C@@H](CS(=O)(=O)O)C(C)C)CC[C@@H]23)[C@@]2(C)CC[C@@H](O)C[C@@H]12` [NC40017], the results for the IC50 in assay [1] and in assay [2] were at least 200 nM and 500 to 1000 nM, respectively. Also, the inhibition at 1 µM in assay [3] was 20 to 50%; in assay [4] it was below 20%.
On the same counts, the results for `C[C@H](CCC(=O)N[C@H](CO)CS(=O)(=O)O)[C@H]1CC[C@H]2[C@@H]3CC[C@@H]4CC(=O)CC[C@]4(C)[C@H]3CC[C@]12C` [NC30025] are at least 200 nM, 1000 to 2000 nM, below 20% and above 100%.
On the same counts, the results for `C[C@H](CCC(=O)NC1(CS(=O)(=O)O)CC1)[C@H]1CC[C@H]2[C@@H]3[C@H](O)C[C@@H]4C[C@H](O)CC[C@]4(C)[C@H]3C[C@H](O)[C@]12C` [NC20032] are below 50 nM, at least 2000 nM, 50 to 100% and below 20%.
Consider `CC[C@H]1[C@@H](O)[C@@H]2[C@H](C[C@H](O)[C@]3(C)[C@@H]([C@H](C)CCC(=O)N(CCS(=O)(=O)O)C(C)C)CC[C@@H]23)[C@@]2(C)CC[C@@H](O)C[C@@H]12` [NC50007], for which the IC50 in assay [1] was in the range of 50 to 100 nM; in assay [2], 1000 to 2000 nM. Moreover, the inhibition at 1 µM is above 100% in assay [3] and below 20% in assay [4].
Consider `C[C@H](CCC(=O)N(CCN(C)C)CCS(=O)(=O)O)[C@H]1CC[C@H]2[C@@H]3[C@H](O)C[C@@H]4C[C@H](O)CC[C@]4(C)[C@H]3C[C@H](O)[C@]12C` [NC20035], for which the IC50 in assay [1] fell in the range of 50 to 100 nM; in assay [2], 1000 to 2000 nM. In addition, the inhibition at 1 µM in assay [3] and in assay [4] was below 20% in each case.
For the compound `CC(C)C[C@H](CS(=O)(=O)O)NC(=O)CC[C@@H](C)[C@H]1CC[C@H]2[C@@H]3CC[C@@H]4C[C@H](O)CC[C@]4(C)[C@H]3C[C@H](O)[C@]12C` [NC10046], the half-maximal inhibitory concentration (IC50) in assay [1] is 100 to 200 nM; in assay [2], below 500 nM. In addition, the inhibition at 1 µM in assay [3] is 50 to 100%; in assay [4] it was below 20%.
The corresponding values for `C[C@H](CCC(=O)N[C@@H]1CCCC[C@@H]1S(=O)(=O)O)[C@H]1CC[C@H]2[C@@H]3CC[C@@H]4C[C@H](O)CC[C@]4(C)[C@H]3C[C@H](O)[C@]12C` [NC10041] are at least 200 nM, 500 to 1000 nM, below 20% and below 20%.
Turning to `C[C@H](CCC(=O)N1CCC[C@@H]1CS(=O)(=O)O)[C@H]1CC[C@H]2[C@@H]3CC[C@@H]4C[C@H](O)CC[C@]4(C)[C@H]3CC[C@]12C` [NC10076], the IC50 in assay [1] is 50 to 100 nM; in assay [2], at least 2000 nM. The inhibition at 1 µM in assay [3] is above 100%; in assay [4] it was below 20%.
In the case of `C[C@H](CCC(=O)NC[C@@H](C)S(=O)(=O)O)[C@H]1CC[C@H]2[C@@H]3[C@H](O)C[C@@H]4C[C@H](O)CC[C@]4(C)[C@H]3C[C@H](O)[C@]12C` [NC20023], the IC50 in assay [1] is 50 to 100 nM; in assay [2], at least 2000 nM. Further, the inhibition at 1 µM in assay [3] and in assay [4] was below 20% in each case.
